Measured values as given in US7851487B2, “Use of tetrahydropyridines in the treatment of central nervous system disorders” (The Research Foundation of State University of New York, priority 2006, dated 2010).

Assays:
[1] = biological target: Dopamine D3 (Homo sapiens, UniProt P35462); test: Radioligand binding, Dopamine D3; details: Dopamine D3, 10 μM; read-out: Percentage Inhibition
Description: (§1) The assays utilized human neuroreceptors and were performed under the experimental parameters set forth in Table 2 using standard techniques.
(§2) For Table 3, IC50 values were determined by non-linear, least squares regression analysis using Data Analysis Toolbox™ (MDL Information Systems, San Leandro, Calif., USA). Inhibition constants (KI) were calculated using the equation of Cheng and Prusoff (Cheng, Y., et al. Biochem. Pharmacol. 22:3099-3108, 1973) using the observed IC50 of the tested compound, the concentration of radioligand employed in the assay, and the values for the KD of the ligand. The Hill coefficient (nH), defining the slope of the competitive binding curve, was calculated using the Data Analysis Toolbox™. Biochemical assay results are presented as the percent inhibition of specific binding or activity unless indicated otherwise. The experiments summarized in Table 3 utilized human dopamine D1, D2 s, D21, D3, D4.2, D4.4, serotonin 5HT1A, 5HT2A, 5HT2C, 5HT6, 5HT7, dopamine transporter (DAT), serotonin transporter (SERT) and the norepinephrine transporter (NET), as indicated in Table 3.

[2] = biological target: T1, Serotonin 5HT2C (Homo sapiens, UniProt P28335); test: Radioligand binding, Serotonin 5HT2C ([3H]Mesulergine)
T1 construct: host or cells: CHO-K1 cells
T1 sequence (P28335 33-458): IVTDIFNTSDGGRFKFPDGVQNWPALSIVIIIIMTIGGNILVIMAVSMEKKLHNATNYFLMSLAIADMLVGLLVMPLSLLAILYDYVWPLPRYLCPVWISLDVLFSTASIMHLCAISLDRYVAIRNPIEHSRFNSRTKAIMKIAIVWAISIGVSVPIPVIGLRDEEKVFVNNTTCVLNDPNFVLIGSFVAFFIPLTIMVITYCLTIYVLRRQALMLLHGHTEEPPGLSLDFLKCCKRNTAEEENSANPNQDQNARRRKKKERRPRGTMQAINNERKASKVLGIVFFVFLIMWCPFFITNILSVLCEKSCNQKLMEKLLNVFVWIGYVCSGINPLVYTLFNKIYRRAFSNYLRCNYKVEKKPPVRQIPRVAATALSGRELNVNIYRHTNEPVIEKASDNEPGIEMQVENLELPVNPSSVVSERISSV
Description: as §1, §2

[3] = biological target: T2, Dopamine D4.4 (Homo sapiens, UniProt P21917); test: Radioligand binding, Dopamine D4.4 ([3H]Spiperone)
T2 construct: host or cells: CHO-K1 cells
T2 sequence (P21917 1-419): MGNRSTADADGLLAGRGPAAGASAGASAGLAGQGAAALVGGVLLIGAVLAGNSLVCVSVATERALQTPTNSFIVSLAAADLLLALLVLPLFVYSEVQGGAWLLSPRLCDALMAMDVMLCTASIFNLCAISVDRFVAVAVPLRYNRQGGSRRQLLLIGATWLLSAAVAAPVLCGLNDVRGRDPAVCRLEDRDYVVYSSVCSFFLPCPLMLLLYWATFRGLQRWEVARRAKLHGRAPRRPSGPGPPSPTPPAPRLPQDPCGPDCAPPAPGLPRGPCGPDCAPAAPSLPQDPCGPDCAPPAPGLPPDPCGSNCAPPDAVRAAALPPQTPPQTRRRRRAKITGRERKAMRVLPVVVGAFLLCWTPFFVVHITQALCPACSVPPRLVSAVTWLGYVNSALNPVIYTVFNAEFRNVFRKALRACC
Description: as §1, §2

[4] = biological target: T3, Dopamine transporter (DAT) (Homo sapiens, UniProt Q01959); test: Radioligand binding, Dopamine transporter (DAT) ([125I]RTI-55)
T3 construct: host or cells: CHO-K1 cells
T3 sequence (Q01959 whole entry): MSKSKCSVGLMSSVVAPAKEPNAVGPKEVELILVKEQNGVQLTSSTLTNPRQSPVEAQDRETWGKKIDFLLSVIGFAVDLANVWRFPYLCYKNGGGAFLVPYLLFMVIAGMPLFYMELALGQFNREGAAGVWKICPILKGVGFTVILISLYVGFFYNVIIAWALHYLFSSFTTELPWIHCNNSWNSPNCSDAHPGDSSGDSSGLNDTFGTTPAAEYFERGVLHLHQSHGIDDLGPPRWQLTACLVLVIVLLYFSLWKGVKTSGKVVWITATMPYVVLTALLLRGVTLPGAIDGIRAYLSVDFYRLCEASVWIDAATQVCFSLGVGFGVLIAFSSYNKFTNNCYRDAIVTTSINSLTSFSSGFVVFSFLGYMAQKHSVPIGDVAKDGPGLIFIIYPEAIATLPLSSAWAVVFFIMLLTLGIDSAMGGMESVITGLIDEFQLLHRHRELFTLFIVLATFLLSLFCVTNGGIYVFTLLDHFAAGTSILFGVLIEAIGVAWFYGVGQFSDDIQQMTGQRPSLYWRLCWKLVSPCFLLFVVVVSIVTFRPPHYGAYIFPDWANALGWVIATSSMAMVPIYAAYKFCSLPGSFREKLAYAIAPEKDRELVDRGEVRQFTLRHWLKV
Description: as §1, §2

[5] = biological target: T4, Dopamine D2L (Homo sapiens, UniProt P14416); test: Radioligand binding, Dopamine D2L ([3H]Spiperone)
T4 construct: host or cells: CHO cells
T4 sequence (P14416 whole entry): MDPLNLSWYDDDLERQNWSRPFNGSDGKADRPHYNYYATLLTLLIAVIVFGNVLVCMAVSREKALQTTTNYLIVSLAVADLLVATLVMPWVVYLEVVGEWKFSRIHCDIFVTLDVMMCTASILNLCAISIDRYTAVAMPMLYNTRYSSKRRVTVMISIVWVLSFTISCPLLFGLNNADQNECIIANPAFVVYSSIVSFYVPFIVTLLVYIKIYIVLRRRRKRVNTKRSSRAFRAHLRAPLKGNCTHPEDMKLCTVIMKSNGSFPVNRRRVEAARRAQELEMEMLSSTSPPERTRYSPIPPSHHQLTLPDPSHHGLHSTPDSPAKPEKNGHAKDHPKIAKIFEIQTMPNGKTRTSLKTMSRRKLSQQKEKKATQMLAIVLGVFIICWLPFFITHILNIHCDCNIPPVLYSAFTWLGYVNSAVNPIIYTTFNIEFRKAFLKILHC
Description: as §1, §2

[6] = biological target: T5, Dopamine D4.2 (Homo sapiens, UniProt P21917, DEL265-296); test: Radioligand binding, Dopamine D4.2 ([3H]Spiperone)
T5 construct: host or cells: CHO-K1 cells
T5 sequence (P21917 with tags, fused parts or gaps DEL265-296): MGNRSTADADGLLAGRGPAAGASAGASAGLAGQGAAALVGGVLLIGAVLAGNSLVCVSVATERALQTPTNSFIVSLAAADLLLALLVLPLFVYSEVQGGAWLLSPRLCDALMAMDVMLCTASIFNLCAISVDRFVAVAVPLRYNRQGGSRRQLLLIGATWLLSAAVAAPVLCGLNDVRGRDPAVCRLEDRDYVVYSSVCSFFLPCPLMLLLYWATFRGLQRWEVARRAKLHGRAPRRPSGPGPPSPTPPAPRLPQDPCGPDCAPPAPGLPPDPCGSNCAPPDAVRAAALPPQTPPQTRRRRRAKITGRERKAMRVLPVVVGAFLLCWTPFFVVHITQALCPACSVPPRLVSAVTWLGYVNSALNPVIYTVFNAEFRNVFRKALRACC
Description: as §1, §2

Sequence of Dopamine D3 (P35462 whole entry): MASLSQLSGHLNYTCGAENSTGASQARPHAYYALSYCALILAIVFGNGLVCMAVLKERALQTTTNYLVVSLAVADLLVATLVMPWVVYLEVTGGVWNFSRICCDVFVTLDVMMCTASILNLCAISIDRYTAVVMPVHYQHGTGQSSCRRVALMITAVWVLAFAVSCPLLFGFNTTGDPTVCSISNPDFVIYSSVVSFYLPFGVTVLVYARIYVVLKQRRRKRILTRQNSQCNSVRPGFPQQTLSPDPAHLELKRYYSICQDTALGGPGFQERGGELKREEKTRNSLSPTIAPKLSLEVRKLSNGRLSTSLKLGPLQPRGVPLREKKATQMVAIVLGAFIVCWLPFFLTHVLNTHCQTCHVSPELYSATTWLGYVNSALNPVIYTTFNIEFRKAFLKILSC

COC(=O)[C@@H](c1ccc(-c2ccccc2)cc1)[C@H]1C=CCCN1 [Compound 2]
inhibition at 10 µM [1]: 15% | IC50 [2]: 13.4 µM | Ki [2]: 7.03 µM | inhibition at 10 µM ([2]; Serotonin 5HT2C, 10 μM, read-out: Percentage Inhibition): 52% | inhibition at 30 µM ([2]; Serotonin 5HT2C, 30 μM, read-out: Percentage Inhibition): 70% | nH ([2]; Serotonin 5HT2C, Hill coefficient): 1.12 | IC50 [3]: 66.7 µM | Ki [3]: 18.5 µM | nH ([3]; Dopamine D4.4, Hill coefficient): 1.01 | Percentage Inhibition ([3]; Dopamine D4.4, concentration 100 (unit not given)): 62% | IC50 [4]: 13.8 µM | Ki [4]: 11 µM | inhibition at 10 µM ([4]; Dopamine transporter (DAT), 10 μM, read-out: Percentage Inhibition): 33% | inhibition at 100 µM ([4]; Dopamine transporter (DAT), 100 μM, read-out: Percentage Inhibition): 74% | nH ([4]; Dopamine transporter (DAT), Hill coefficient): 1.3 | IC50 [5]: 88.2 µM | Ki [5]: 29.4 µM | inhibition at 10 µM ([5]; Dopamine D2l, 10 μM, read-out: Percentage Inhibition): 13% | inhibition at 100 µM ([5]; Dopamine D2l, 100 μM, read-out: Percentage Inhibition): 54% | nH ([5]; Dopamine D2l, Hill coefficient): 0.716 | IC50 [6]: 50.5 µM | Ki [6]: 19.7 µM | nH ([6]; Dopamine D4.2, Hill coefficient): 1.76 | Percentage Inhibition ([6]; Dopamine D4.2, concentration 100 (unit not given)): 79%
